Assay results taken from ChEMBL document CHEMBL1138364 (J Med Chem, 2007).

Tests used:
Human alphaherpesvirus 3 [1] = test: Antiviral activity against TK- VZV 07 in HEL cells after 5 days; assay type: functional, organism-based; settings: Human alphaherpesvirus 3, 07, HEL, 120 h
Human alphaherpesvirus 3 [2] = test: Antiviral activity against TK+ VZV YS in HEL cells after 5 days; assay type: functional, organism-based; settings: Human alphaherpesvirus 3, YS, 120 h
[3] = Cytotoxicity against HEL cells assessed as alteration in cell morphology; assay type: cell-based; settings: human
[4] = Cytotoxicity against HEL cells; assay type: cell-based; settings: human
Human alphaherpesvirus 3 [5] = test: Antiviral activity against TK- VZV YS in HEL cells after 5 days; assay type: functional, organism-based; settings: Human alphaherpesvirus 3, YS, 120 h
[6] = Inhibition of VZV-TK catalyzed dThd phosphorylation; set-up: species or system Human alphaherpesvirus 3
Human alphaherpesvirus 3 [7] = test: Antiviral activity against TK+ VZV OKA in HEL cells after 5 days; assay type: functional, organism-based; settings: Human alphaherpesvirus 3, OKA, 120 h

SMILES | EC50 (Human alphaherpesvirus 3 [1]) [nM] | EC50 (Human alphaherpesvirus 3 [2]) [nM] | MCC [3] [µM] | CC50 [4] [nM] | EC50 (Human alphaherpesvirus 3 [5]) [nM] | IC50 [6] [nM] | EC50 (Human alphaherpesvirus 3 [7]) [nM]
O=c1[nH]c(=O)n([C@H]2C[C@H](O)[C@@H](CO)O2)cc1/C=C/Br [BRIVUDINE] | > 200000 | 5 | > 200 | > 200000 | > 200000 | 1300 | 5
CCCCCc1ccc(-c2cc3cn([C@@H]4C[C@H](CO)[C@@H](O)C4)c(=O)nc3o2)cc1 | > 50000 | 280 | > 50 | > 50000 |  | 44000 | 490
CCCCCc1ccc(-c2cc3cn([C@H]4C[C@H](O)[C@@H](CO)O4)c(=O)nc3o2)cc1 [CF1743] |  |  | > 20 |  |  |  | 
Nc1nc2c(ncn2COCCO)c(=O)[nH]1 [ACYCLOVIR] |  |  | > 200 | > 200000 |  |  | 
